Molecular target: T1, aldose reductase (Rattus norvegicus, UniProt P07943)
T1 construct: the lenses were excised and homogenized in cold distilled water; from tissue; host or cells: lens of male SD rats, homogenate supernatant (crude enzyme)
Assay: Inhibitory activity against aldose reductase (crude enzyme from rat lenses, NADPH oxidation at 340 nm, D,L-glyceraldehyde substrate)
Type: biochemical
Conditions: aldose reductase from SD rat lenses, pH 6.2, 30° C.; for inhibition at 10 µM: pH 6.2, 10^-5 M; for inhibition at 10 µM / inhibition at 1 µM: read-out: Percentage of inhibition (%); for inhibition at 1 µM: pH 6.2, 10^-6 M
Method: The compounds of the present invention were evaluated for the inhibitory activity against aldose reductase according to the following assay procedure.
Enzyme activity was assayed according to the modification [Biochemical Pharmacology, 25, 2505 (1976)] of the method described in J. Biol. Chem., 240, 877-882 (1965).
SD strain male rats were sacrificed by decapitation, the lenses were excised and homogenized in cold distilled water. The homogenate was then centrifuged and the supernatant was used as the crude aldose reductase solution.
Separately, a 0.1 M sodium phosphate buffer (pH 6.2) containing 0.4 M ammonium sulfate was prepared at 30° C. In this buffer were dissolved the present compound, the crude aldose reductase solution and nicotinamide-adenine dinucleotide phosphate, reduced form (NADPH). The mixture was preincubated at 30° C. for 3 minutes and the reaction was initiated by addition of D,L-glyceraldehyde. In this case, the concentration of the present compound dissolved was 10^-5 M and 10^-6 M, respectively. The total amount of the assay mixture was 1.0 ml, containing 0.16 mM of NADPH, 10 mM of D,L-glyceraldehyde and 0.010-0.016 units of aldose reductase.
The inhibitory activity of the present compounds against aldose reductase was measured using each 1.0 ml of the reaction mixture containing the present compound in the above concentration. In this measurement, the rate of NADPH oxidation was followed by recording the decrease in absorbance at 340 nm. The inhibitory activity of the present compounds against aldose reductase as measured was expressed in percentage of inhibition (%) as a relative activity based on a control value.

inhibition at 10 µM [%] | inhibition at 1 µM [%] | Percentage of inhibition (%) (10^-5 M) | Percentage of inhibition (%) (10^-6 M) | Structure (SMILES)
42.9 | – | – | – | CCCCCCC(CCc1ccc(CCC(=O)O)cc1)=C1SC(=S)NC1=O (single isomer, unassigned) [33 Isomer A]
33 | – | – | – | CCCCCCC(C=Cc1ccc(C=CC(=O)O)cc1)=C1SC(=S)NC1=O (single isomer, unassigned) [Example 28, 4-[3-(4-Oxo-2-thioxo-5-thiazolidinylidene)-1-nonenyl]cinnamic acid]
– | – | 54.3 | – | CCOC(=O)CCC(C=Cc1cccs1)=C1SC(=S)NC1=O (single isomer, unassigned) [13 Isomer B]
– | – | 83.8 | 45.9 | CCCC(CCc1ccccc1OCC(=O)O)=C1SC(=S)NC1=O (single isomer, unassigned) [27 Isomer B]
62.6 | 29.9 | – | – | CCCCCCC(C=Cc1ccc(OCc2nn[nH]n2)cc1)=C1SC(=S)NC1=O [Example 4]
94.9 | 78.3 | – | – | CC(C=Cc1ccc(OCC(=O)O)cc1)=C1SC(=S)NC1=O (single isomer, unassigned) [21 Isomer A]
77.1 | 29.7 | – | – | CCCC(C=Cc1ccc(C(=O)O)cc1)=C1SC(=S)NC1=O (single isomer, unassigned) [3 Isomer A]
67.6 | 22.1 | – | – | COc1ccc(C=CC(C)=C2SC(=S)NC2=O)cc1OCC(=O)O [Example 82, 2-Methoxy-5-[3-(4-oxo-2-thioxo-5-thiazolinylidene)-1-butenyl]phenoxyacetic acid]
95.7 | 86.8 | – | – | COc1ccc(C=CC(CCCC(=O)O)=C2SC(=S)NC2=O)cc1OC (single isomer, unassigned) [38 Isomer A]
– | – | 30.5 | – | CCCCCCC(CCc1ccc(CCC(=O)O)cc1)=C1SC(=S)NC1=O (single isomer, unassigned) [33 Isomer B]
82.8 | 38.5 | – | – | O=C(O)CCC(C=Cc1ccc(C(=O)O)cc1)=C1SC(=S)NC1=O [Example 29, 6-(4-Carboxyphenyl)-4-(4-oxo-2-thioxo-5-thiazolidinylidene)-5-hexenoic acid]
56.4 | – | – | – | CC(CCCC(=O)Nc1ccccc1C(=O)O)=C1SC(=S)NC1=O [Example 37, N-[5-(4-Oxo-2-thioxo-5-thiazolidinylidene)hexanoyl]anthranilic acid]
57.9 | – | – | – | CCOC(=O)CCC(C=Cc1cccc(O)c1)=C1SC(=S)NC1=O (single isomer, unassigned) [8 Isomer A]
– | – | 89.8 | – | CC(C=Cc1ccc(OCC(=O)O)cc1)=C1SC(=S)NC1=O (single isomer, unassigned) [21 Isomer B]
87.4 | 62.2 | – | – | CCOc1cc(C=CC(C)=C2SC(=S)NC2=O)ccc1OCC(=O)O [Example 70]
– | – | 75.8 | 36.8 | CC(C=Cc1ccc(OCC(=O)O)c(OCC(=O)O)c1)=C1SC(=S)NC1=O (single isomer, unassigned) [83 Isomer B]
90.6 | 53.1 | – | – | CCCC(CCc1ccccc1OCC(=O)O)=C1SC(=S)NC1=O (single isomer, unassigned) [27 Isomer A]
35 | – | – | – | CCOC(=O)CCC(C=Cc1ccc(C(F)(F)F)cc1)=C1SC(=S)NC1=O (single isomer, unassigned) [6 Isomer A]

The remaining lines, values behind:

Structure (SMILES) | inhibition at 10 µM [%] | inhibition at 1 µM [%] | Percentage of inhibition (%) (10^-5 M) | Percentage of inhibition (%) (10^-6 M)
CC(C=Cc1cc(Br)cc(Br)c1OCC(=O)O)=C1SC(=S)NC1=O [Example 81, 2,4-Dibromo-6-[3-(4-oxo-2-thioxo-5-thiazolinylidene)-1-butenyl]phenoxyacetic acid] | 75.4 | – | – | –
CCCC(=Cc1ccccc1OCC(=O)OC)C=C1SC(=S)NC1=O (single isomer, unassigned) [61 Isomer A] | 61.8 | 28.7 | – | –
COc1ccc(OCC(=O)O)c(C=CC(C)=C2SC(=S)NC2=O)c1 [Example 88, 4-Methoxy-2-[3-(4-oxo-2-thioxo-5-thiazolinylidene)-1-butenyl]phenoxyacetic acid] | 93.3 | 79.1 | – | –
CC(C=Cc1cc(Cl)ccc1OCC(=O)OCc1ccccc1)=C1SC(=S)NC1=O [Example 50, Benzyl 4-chloro-2-[3-(4-oxo-2-thioxo-5-thiazolinylidene)-1-butenyl]phenoxyacetate] | 48 | – | – | –
CCOc1cc(CCC(C)=C2SC(=S)NC2=O)ccc1OCC(=O)O [Example 71, 2-Ethoxy-4-[3-(4-oxo-2-thioxo-5-thiazolinylidene)butyl]phenoxyacetic acid] | 73.8 | – | – | –
CC(C=Cc1cc(C)c(OCC(=O)O)c(C)c1)=C1SC(=S)NC1=O [Example 87, 2,6-Dimethyl-4-[3-(4-oxo-2-thioxo-5-thiazolinylidene)-1-butenyl]phenoxyacetic acid] | 89.6 | 60.5 | – | –
CCC(CCc1cccn1CCC(=O)O)=C1SC(=S)NC1=O [Example 34, 3-{2-[3-(4-Oxo-2-thioxo-5-thiazolidinylidene)pentyl]pyrrol-1-yl}propionic acid] | 80.8 | 35.5 | – | –
COC(=O)c1ccccc1NC(=O)C(C)=C1SC(=S)NC1=O [Example 18, Methyl N-[2-(4-oxo-2-thioxo-5-thiazolidinylidene)propionyl]anthranilate] | 84 | 62.6 | – | –
CC(C=Cc1cc(C(C)C)ccc1OCC(=O)O)=C1SC(=S)NC1=O [Example 85, 4-Isopropyl-2-[3-(4-oxo-2-thioxo-5-thiazolinylidene)-1-butenyl]phenoxyacetic acid] | 92 | 77.6 | – | –
COc1cc(C=CC(C)=C2SC(=S)N(C)C2=O)ccc1OCC(=O)O [Example 78, 2-Methoxy-4-[3-(3-methyl-4-oxo-2-thioxo-5-thiazolinylidene)-1-butenyl]phenoxyacetic acid] | 87.1 | 65.9 | – | –
COc1cc(CCC(C)=C2SC(=S)NC2=O)ccc1OCC(=O)O [Example 69, 2-Methoxy-4-[3-(4-oxo-2-thioxo-5-thiazolinylidene)butyl]-phenoxyacetic acid] | 78.4 | 46.4 | – | –
COC(=O)COc1ccc(C=CC(C)=C2SC(=S)NC2=O)cc1OCC(=O)OC (single isomer, unassigned) [60 Isomer A] | 61.5 | 27.7 | – | –
COC(=O)c1ccccc1NC(=O)CCCC(C)=C1SC(=S)NC1=O [Example 19, Methyl N-[5-(4-oxo-2-thioxo-5-thiazolidinylidene)hexanoyl]anthranilate] | 34.6 | – | – | –
CC(C=Cc1cc(C(F)(F)F)ccc1OCC(=O)O)=C1SC(=S)NC1=O [Example 89, 4-Trifluoromethyl-2-[3-(4-oxo-2-thioxo-5-thiazolinylidene)-1-butenyl]phenoxyacetic acid] | 92.9 | 85.7 | – | –
CC(C=Cc1cc(C(C)C)c(OCC(=O)O)c(C(C)C)c1)=C1SC(=S)NC1=O [Example 77, 2,6-Diisopropyl-4-[3-(4-oxo-2-thioxo-5-thiazolinylidene)-1-butenyl]phenoxyacetic acid] | 82.8 | 41.4 | – | –
CC(C(=O)Nc1ccccc1C(=O)O)=C1SC(=S)NC1=O [Example 36, N-[2-(4-Oxo-2-thioxo-5-thiazolidinylidene)propionyl]anthranilic acid] | 94 | 80 | – | –
COC(=O)COc1ccc(Cl)cc1C=CC(C)=C1SC(=S)NC1=O [Example 49, Methyl 4-chloro-2-[3-(4-oxo-2-thioxo-5-thiazolinylidene)-1-butenyl]phenoxyacetate] | 80 | 30.5 | – | –
COC(=O)COc1ccccc1C=C(C)C=C1SC(=S)NC1=O [Example 41, Methyl 2-[2-methyl-3-(4-oxo-2-thioxo-5-thiazolinylidene)-1-propenyl]phenoxyacetate] | 86.2 | 48.5 | – | –
COc1cccc(C=CC(C)=C2SC(=S)NC2=O)c1OCC(=O)O [Example 72, 2-Methoxy-6-[3-(4-oxo-2-thioxo-5-thiazolinylidene)-1-butenyl] phenoxyacetic acid] | 80.1 | 24.8 | – | –
CCCC(=Cc1ccccc1OCC(=O)O)C=C1SC(=S)NC1=O [Example 84, 2-[2-Propyl-3-(4-oxo-2-thioxo-5-thiazolinylidene)-1-propenyl]phenoxyacetic acid] | 92 | 77.6 | – | –
COC(=O)COc1ccccc1C=C(C)C=C1SC(=S)NC1=O [Example 63, Methyl 2-[2-methyl-3-(4-oxo-2-thioxo-5-thiazolinylidene)-1-propenyl]phenoxyacetate] | – | – | 80.5 | 32.2
